Test results reported in patent publication US20240109898A1, “SUBSTITUTED PYRAZOLO[1,5-A]PYRIMIDINE-7-AMINE DERIVATIVES, COMPOSITIONS AND PHARMACEUTICAL USES THEREOF” (SHANGHAI HAIYAN PHARMACEUTICAL TECHNOLOGY CO., LTD., priority 2021, published 2024).

How the values were obtained:
Assay type in all cases: biochemical
[1] = molecular target: CDK9/CycT (Homo sapiens (Human), UniProt P50750); test: LANCE Ultra kinase activity inhibition assay, CDK9/CycT; details: ATP 10 μM, highest compound concentration 1 μM
CDK9/CycT, sequence (P50750 whole entry): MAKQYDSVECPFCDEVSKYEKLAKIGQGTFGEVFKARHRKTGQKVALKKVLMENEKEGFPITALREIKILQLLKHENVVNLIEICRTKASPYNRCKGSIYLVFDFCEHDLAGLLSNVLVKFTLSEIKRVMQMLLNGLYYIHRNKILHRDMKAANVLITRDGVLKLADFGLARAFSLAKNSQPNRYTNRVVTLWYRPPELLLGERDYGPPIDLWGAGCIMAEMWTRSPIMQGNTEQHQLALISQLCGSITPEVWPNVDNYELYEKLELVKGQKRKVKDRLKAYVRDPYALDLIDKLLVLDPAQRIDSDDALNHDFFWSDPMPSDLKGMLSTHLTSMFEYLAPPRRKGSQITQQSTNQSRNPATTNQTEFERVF
CDK9/CycT, sequence (O60563 whole entry partner): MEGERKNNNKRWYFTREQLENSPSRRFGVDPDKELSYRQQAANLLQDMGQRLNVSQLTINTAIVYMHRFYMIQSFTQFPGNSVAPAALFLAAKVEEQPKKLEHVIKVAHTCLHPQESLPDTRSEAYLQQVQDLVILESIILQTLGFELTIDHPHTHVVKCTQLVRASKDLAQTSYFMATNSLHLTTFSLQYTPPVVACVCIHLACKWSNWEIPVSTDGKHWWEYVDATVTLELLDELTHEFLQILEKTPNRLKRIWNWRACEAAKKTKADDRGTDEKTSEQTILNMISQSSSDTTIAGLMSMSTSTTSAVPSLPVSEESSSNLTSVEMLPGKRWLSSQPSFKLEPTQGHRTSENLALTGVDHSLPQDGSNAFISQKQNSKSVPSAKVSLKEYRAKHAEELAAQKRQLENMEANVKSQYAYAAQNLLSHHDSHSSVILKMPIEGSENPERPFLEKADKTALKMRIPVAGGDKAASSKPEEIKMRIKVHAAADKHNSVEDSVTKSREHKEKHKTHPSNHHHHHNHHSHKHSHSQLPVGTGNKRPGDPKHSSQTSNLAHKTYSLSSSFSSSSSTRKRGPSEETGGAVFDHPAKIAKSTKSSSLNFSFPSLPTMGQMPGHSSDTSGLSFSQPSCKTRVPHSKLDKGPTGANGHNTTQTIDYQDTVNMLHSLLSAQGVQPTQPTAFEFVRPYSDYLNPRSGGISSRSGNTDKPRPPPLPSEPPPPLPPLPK
Protocol: (§1) In the following LANCE Ultra test methods, kinase reagents were purchased from Carna Bioscience, reaction substrates and detection reagents were purchased from PerkinElmer, and the remaining reagents were purchased from Thermo scientific.
The inhibiting effects on the kinase activity of CDK1/CycB (Carna bioscience, #04-102), CDK2/CycA (Carna bioscience, #04-103) and CDK9/CycT (Carna bioscience, #04-110) were determined by using LANCE Ultra method.
The kinase activity test was performed using a system (10 μL) containing the following components: substrate diluent prepared by mixing CDK kinase diluent, Ulight-Myelic basic protein (Perkin Elmer, #TRF-0109, hereinafter referred to as U-MBP) and ATP (Thermo scientific, #PV3227); and the compounds (i.e., analyte) prepared in the examples of the present disclosure. The assay for each kinase includes three test groups, i.e., a background group (Blank), a non-inhibition group (PC), and compound testing group (Test). The components included in each test group were as follows:
(§2) Working concentrations of the respective components of the Test groups in different kinase reactions were as follows.
(§3) Compounds: 10 mM of the compound to be tested was dissolved at room temperature and diluted with DMSO to gradient concentrations, followed by diluting with deionized water to prepare a 4× working solution of the compound, and the content of DMSO was 2%. The highest concentration of compound used in the CDK1 and CDK2 assays was 10 μM, and that in CDK9 assay was 1 μM.
1.33×reaction buffer: the components include 26.7 mM of MOPS, 6.67 mM of MgCl2, and 0.0133% Tween-20, which were stored in a 4° C. refrigerator and protected from light after preparation. Freshly prepared DTT was added to a final concentration of 5.33 mM before use.
(§4) The working concentration of DMSO in the reaction was 0.5%.
(§5) The above-mentioned components, after being mixed, were placed on a shaker and incubated at room temperature in the dark for 1 h. 10 μL of test solution was then added to all test groups (including Blank, PC and Test groups).
10 μL of test solution contains the following components: 16 mM of EDTA (Thermo scientific, #15575), 1 nM of phosphorylated U-MBP protein antibody (Perkin Elmer, #TRF-0201), and 1× detection damping fluid (Perkin Elmer, #CR97-100).
After the test solution was added, the solution was placed on a shaker and continually incubated at room temperature for 1 h in the dark. At the end of incubation, Victor X5 fluorescence microplate reader of Perkin Elmer was used to read the signal; the wavelength of excitation light was 320 nm, and the wavelengths of emission light were 615 nm and 665 nm. The inhibition rate was calculated as below.
1. For all groups, a value of 665 nm/615 nm (hereinafter referred to as Ratio) was calculated, and an inhibition rate was calculated based on the Ratio of each group;
(§6) 2. Inhibition rate=(PCRatio-TestRatio)/(PCRatio-BlankRatio)*100%; and
(§7) 3. XLFIT 5.0 software (IDBS, UK) was used to fit a graph by using the logarithmic value of the compound concentration as the X-axis and the inhibition rater as the Y-axis, and a four-parameter model was used to calculate the half inhibitory concentration IC50 of the compound.

[2] = molecular target: CDK1/CycB (Homo sapiens (Human), UniProt P06493); test: LANCE Ultra kinase activity inhibition assay, CDK1/CycB; details: ATP 4 μM, highest compound concentration 10 μM
CDK1/CycB, sequence (P06493 whole entry): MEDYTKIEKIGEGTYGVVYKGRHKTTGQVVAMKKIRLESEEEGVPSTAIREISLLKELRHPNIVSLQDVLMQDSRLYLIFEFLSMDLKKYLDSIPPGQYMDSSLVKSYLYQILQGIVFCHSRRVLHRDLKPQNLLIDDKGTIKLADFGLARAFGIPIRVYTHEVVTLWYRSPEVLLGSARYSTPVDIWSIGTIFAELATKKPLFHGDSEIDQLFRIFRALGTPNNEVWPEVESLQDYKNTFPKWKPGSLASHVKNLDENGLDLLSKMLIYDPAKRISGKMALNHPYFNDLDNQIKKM
CDK1/CycB, sequence (P14635 whole entry partner): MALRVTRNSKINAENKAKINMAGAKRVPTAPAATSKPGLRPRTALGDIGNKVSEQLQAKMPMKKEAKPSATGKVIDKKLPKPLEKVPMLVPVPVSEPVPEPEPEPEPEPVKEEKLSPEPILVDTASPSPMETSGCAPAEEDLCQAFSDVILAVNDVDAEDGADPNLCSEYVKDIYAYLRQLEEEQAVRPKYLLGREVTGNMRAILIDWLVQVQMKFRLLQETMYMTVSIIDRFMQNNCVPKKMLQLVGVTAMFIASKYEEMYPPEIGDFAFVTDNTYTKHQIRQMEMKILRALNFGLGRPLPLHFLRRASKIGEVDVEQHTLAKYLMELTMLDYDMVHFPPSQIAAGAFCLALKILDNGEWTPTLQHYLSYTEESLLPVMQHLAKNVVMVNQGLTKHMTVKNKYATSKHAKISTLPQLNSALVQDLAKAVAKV
From the text: as §1
(§8) The assay for each kinase includes three test groups, i.e., a background group (Blank), a non-inhibition group (PC), and compound testing group (Test). The components included in each test group were as follows:
as §2, §3, §4, §5
(§9) After the test solution was added, the solution was placed on a shaker and continually incubated at room temperature for 1 h in the dark. […] The inhibition rate was calculated as below.
as §6, §7

[3] = molecular target: CDK2/CycA (Homo sapiens (Human), UniProt P24941); test: LANCE Ultra kinase activity inhibition assay, CDK2/CycA; details: ATP 10 μM, highest compound concentration 10 μM
From the text: as §1, §8, §2, §3, §4, §5, §9, §6, §7

IC50 [1] [µM] | IC50 [2] [µM] | IC50 [3] [µM] | Compound
0.022 | 3.54 | 4.91 | CC[C@@H](c1cc(N[C@H]2CC[C@H](N)C2)n2ncc(C)c2n1)C1CC1 [Compound Z-30-P2]
0.017 | 1.54 | 4.72 | CC(c1cc(N[C@H]2C[C@H](N)C2)n2nccc2n1)C1CC1 (stereo partly drawn) [Compound Z-62]
0.013 | 2.97 | 3.77 | N[C@H]1CC[C@H](Nc2cc([C@H](F)C3CCC3)nc3ccnn23)C1 [Compound Z-41-P2]
0.062 | > 10 | > 10 | COC(c1cc(N[C@H]2CC[C@H](N)C2)n2nccc2n1)C1CC1 (stereo partly drawn) [Compound Z-49]
0.023 | 2.26 | 3.88 | N[C@H]1CC[C@H](Nc2cc(C(F)C3CCC3)nc3ccnn23)C1 (stereo partly drawn) [Compound Z-70]
0.01 | 1.12 | 0.968 | CC[C@H](c1cc(N[C@H]2CC[C@H](N)C2)n2ncc(C)c2n1)C1CC1 [Compound Z-30-P1]
0.01 | 1.36 | 1.55 | CCC(c1cc(N[C@H]2CC[C@H](N)C2)n2ncc(C)c2n1)C1CC1 (stereo partly drawn) [Compound Z-30]
0.06 | 8.45 | > 10 | CC1(Cc2cc(N[C@H]3CC[C@H](N)C3)n3nccc3n2)CC1 [Compound Z-17]
0.056 | 7.1 | > 10 | CCC(c1cc(N[C@H]2CC[C@H](N)C2)n2nccc2n1)C1CCC1 (stereo partly drawn) [Compound Z-43]
0.047 | 4.86 | > 10 | N[C@H]1CC[C@H](Nc2cc(C(F)C3CC3)nc3ccnn23)C1 (stereo partly drawn) [Compound Z-53]
0.009 | 0.996 | 0.967 | Cc1cnn2c(N[C@H]3CC[C@H](N)C3)cc(C(C)C3CC3)nc12 (stereo partly drawn) [Compound Z-32]
0.082 | > 10 | > 10 | COC[C@H](c1cc(N[C@H]2CC[C@H](N)C2)n2nccc2n1)C1CC1 [Compound Z-44]

Continued, compound first:

Compound | IC50 [1] [µM] | IC50 [2] [µM] | IC50 [3] [µM]
Cc1cnn2c(N[C@H]3CC[C@H](N)C3)cc(C(C)(C)C3CC3)nc12 [Compound Z-34] | 0.036 | 8.09 | > 10
CCc1cnn2c(N[C@H]3CC[C@H](N)C3)cc(C(C3CC3)C3CC3)nc12 [Compound Z-16] | 0.022 | 1.27 | 1.27
N[C@H]1CC[C@H](Nc2cc(CC3CC3)nc3c(F)cnn23)C1 [Compound Z-54] | 0.016 | 2.16 | 2.65
Cc1cnn2c(N[C@H]3CC[C@H](N)C3)cc([C@H](C)C3(C)CC3)nc12 [Compound Z-26-P1] | 0.005 | 1.62 | 1.8
CC(c1cc(NC2CCN(N)C2)n2ncc(Cl)c2n1)C1CC1 (stereo not drawn) [Compound Z-47] | 0.035 | 1.04 | 1.91
C=CC(C)(C)c1cc(N[C@H]2CC[C@H](N)C2)n2nccc2n1 [Compound Z-18] | 0.033 | 4.2 | > 10
CC(=N)N[C@H]1CC[C@H](Nc2cc(C(C3CC3)C3CC3)nc3c(C(F)(F)F)cnn23)C1 [Compound Z-68] | 0.025 | 3.47 | 4.68
C=CC(C)(C)c1cc(N[C@H]2CC[C@H](N)C2)n2ncc(F)c2n1 [Compound Z-58] | 0.02 | 5.31 | > 10
Cc1cnn2c(N[C@H]3CC[C@H](N)C3)cc(CC3CCC3)nc12 [Compound Z-51] | 0.065 | 7.76 | 7.75
CC(C)c1cnn2c(N[C@H]3CC[C@H](N)C3)cc(C(C3CC3)C3CC3)nc12 [Compound Z-24] | 0.084 | 2.53 | 2.92
N[C@H]1CC[C@H](Nc2cc(C(C3CC3)C3CC3)nc3ccnn23)C1 [Compound Z-1] | 0.018 | 1.96 | 5.65
CC(=O)N[C@H]1CC[C@H](Nc2cc(C(C)C3CC3)nc3c(Cl)cnn23)C1 (stereo partly drawn) [Compound Z-63] | 0.014 | 0.84 | 0.278
CC(C)(c1cc(N[C@H]2CC[C@H](N)C2)n2ncc(Cl)c2n1)C1CC1 [Compound Z-35] | 0.018 | 1.5 | 1.56
CC(C)(c1cc(N[C@H]2CC[C@H](N)C2)n2ncc(Cl)c2n1)C1CCC1 [Compound Z-46] | 0.01 | 1.15 | 1.81
C=Cc1cnn2c(N[C@H]3CC[C@H](N)C3)cc(C(C)C3CC3)nc12 (stereo partly drawn) [Compound Z-60] | 0.024 | 2.49 | 3.2
N[C@H]1CC[C@H](Nc2cc(C(C3CC3)C3CC3)nc3c(C(F)(F)F)cnn23)C1 [Compound Z-33] | 0.006 | 0.347 | 0.355
CC(=N)N[C@H]1CC[C@H](Nc2cc(C(C)C3CC3)nc3c(F)cnn23)C1 (stereo partly drawn) [Compound Z-72] | 0.02 | 4.89 | 6.57
CCC(c1cc(N[C@H]2CC[C@H](NC(C)=N)C2)n2nccc2n1)C1CC1 (stereo partly drawn) [Compound Z-69] | 0.058 | > 10 | > 10
C=CC(C)(C)c1cc(N[C@H]2CC[C@H](N)C2)n2ncc(C)c2n1 [Compound Z-19] | 0.092 | > 10 | > 10
CC(=N)N[C@H]1CC[C@H](Nc2cc(C(C)C3CC3)nc3c(Cl)cnn23)C1 (stereo partly drawn) [Compound Z-64] | 0.015 | 2.31 | 3.46
N[C@H]1CC[C@H](Nc2cc(C(C3CC3)C3CC3)nc3c(F)cnn23)C1 [Compound Z-15] | 0.005 | 0.293 | 0.367
N[C@H]1CC[C@H](Nc2cc(C(C3CC3)C3CC3)nc3c(Cl)cnn23)C1 [Compound Z-2] | 0.006 | 0.161 | 0.191
